In PubChem BioAssay (NCI):
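Growth conditions: 96-well plates. Treatment: test compound, 48 hours, 5 concentrations. Analysis: linear interpolation between bracketing concentrations; unreached endpoints set to highest concentration. GI50 marks 50% less growth. Definition used: TGI = concentration required for complete inhibition of growth.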

Experiments:
Assay in all cases: growth of human tumour cells (NCI), 48 h
786-0 renal = test system: 786-0 renal
A498 renal = test system: A498 renal
A549 NSCLC = test system: A549 NSCLC
ACHN renal = test system: ACHN renal
BT-549 breast = test system: BT-549 breast
CAKI-1 renal = test system: CAKI-1 renal
CCRF-CEM leukemia = test system: CCRF-CEM leukemia
COLO 205 colon = test system: COLO 205 colon
DU-145 prostate = test system: DU-145 prostate
EKVX NSCLC = test system: EKVX NSCLC
HCC-2998 colon = test system: HCC-2998 colon
HCT-116 colon = test system: HCT-116 colon
HCT-15 colon = test system: HCT-15 colon
HL-60(TB) leukemia = test system: HL-60(TB) leukemia
HOP-62 NSCLC = test system: HOP-62 NSCLC
HOP-92 NSCLC = test system: HOP-92 NSCLC
HS 578T breast = test system: HS 578T breast
HT29 colon = test system: HT29 colon
IGROV1 ovarian = test system: IGROV1 ovarian
K-562 leukemia = test system: K-562 leukemia
KM12 colon = test system: KM12 colon
LOX IMVI melanoma = test system: LOX IMVI melanoma
M14 melanoma = test system: M14 melanoma
MALME-3M melanoma = test system: MALME-3M melanoma
MCF7 breast = test system: MCF7 breast
MDA-MB-231 breast = test system: MDA-MB-231 breast
MDA-MB-435 = test system: MDA-MB-435
MOLT-4 leukemia = test system: MOLT-4 leukemia
NCI-H226 lung = test system: NCI-H226 lung
NCI-H460 lung = test system: NCI-H460 lung
NCI-H522 lung = test system: NCI-H522 lung
NCI/ADR-RES ovarian = test system: NCI/ADR-RES ovarian
OVCAR-3 ovarian = test system: OVCAR-3 ovarian
OVCAR-4 ovarian = test system: OVCAR-4 ovarian
OVCAR-5 ovarian = test system: OVCAR-5 ovarian
OVCAR-8 ovarian = test system: OVCAR-8 ovarian
PC-3 prostate = test system: PC-3 prostate
RPMI-8226 leukemia = test system: RPMI-8226 leukemia
RXF 393 renal = test system: RXF 393 renal
SF-268 CNS = test system: SF-268 CNS
SF-295 CNS = test system: SF-295 CNS
SF-539 CNS = test system: SF-539 CNS
SK-MEL-2 melanoma = test system: SK-MEL-2 melanoma
SK-MEL-28 melanoma = test system: SK-MEL-28 melanoma
SK-MEL-5 melanoma = test system: SK-MEL-5 melanoma
SK-OV-3 ovarian = test system: SK-OV-3 ovarian
SN12C renal = test system: SN12C renal
SNB-19 CNS = test system: SNB-19 CNS
SNB-75 CNS = test system: SNB-75 CNS
SR leukemia = test system: SR leukemia
SW-620 colon = test system: SW-620 colon
T-47D breast = test system: T-47D breast
TK-10 renal = test system: TK-10 renal
U251 CNS = test system: U251 CNS
UACC-257 melanoma = test system: UACC-257 melanoma
UACC-62 melanoma = test system: UACC-62 melanoma
UO-31 renal = test system: UO-31 renal

Work on `COc1cc(OC)c(S(N)(=O)=O)cc1C(=O)/C=C/c1ccc(C)cc1` yielded a GI50 (786-0 renal) of 3.85 µM, a TGI (786-0 renal) of 22.3 µM and a GI50 (A498 renal) of 16.2 µM. For the same molecule, the TGI (A498 renal) was 30.7 µM, the GI50 (A549 NSCLC) was 2.75 µM and the TGI (A549 NSCLC) was 10.3 µM. The GI50 (ACHN renal) was 3.86 µM, the TGI (ACHN renal) was 13.9 µM and the GI50 (BT-549 breast) was 2.18 µM. The TGI (BT-549 breast) was 6.79 µM, the GI50 (CAKI-1 renal) was 2.42 µM and the TGI (CAKI-1 renal) was 12.4 µM. For the same molecule, the GI50 (CCRF-CEM leukemia) was 3.99 µM, the TGI (CCRF-CEM leukemia) was greater than 100 µM and the GI50 (COLO 205 colon) was 3.33 µM. It also gave a TGI (COLO 205 colon) of 9.26 µM, a GI50 (DU-145 prostate) of 4.23 µM and a TGI (DU-145 prostate) of 18.9 µM. The GI50 (EKVX NSCLC) was 4.33 µM, the TGI (EKVX NSCLC) was 16.4 µM and the GI50 (HCC-2998 colon) was 2.39 µM. The TGI (HCC-2998 colon) was 5.47 µM, the GI50 (HCT-116 colon) was 3.06 µM and the TGI (HCT-116 colon) was 12.2 µM. The GI50 (HCT-15 colon) was 2.56 µM, the TGI (HCT-15 colon) was 12.9 µM and the GI50 (HL-60(TB) leukemia) was 2.52 µM. The TGI (HL-60(TB) leukemia) was 15.8 µM, the GI50 (HOP-62 NSCLC) was 2.9 µM and the TGI (HOP-62 NSCLC) was 7.72 µM. For the same molecule, the GI50 (HOP-92 NSCLC) was 2.3 µM, the TGI (HOP-92 NSCLC) was 7.45 µM and the GI50 (HS 578T breast) was 3.5 µM. For the same molecule, the TGI (HS 578T breast) was 35.8 µM, the GI50 (HT29 colon) was 3.5 µM and the TGI (HT29 colon) was 10.1 µM. For the same molecule, the GI50 (IGROV1 ovarian) was 3.56 µM, the TGI (IGROV1 ovarian) was 14.4 µM and the GI50 (K-562 leukemia) was 2.43 µM. The TGI (K-562 leukemia) was greater than 100 µM, the GI50 (KM12 colon) was 3.13 µM and the TGI (KM12 colon) was 14.5 µM. The GI50 (LOX IMVI melanoma) was 0.543 µM, the TGI (LOX IMVI melanoma) was 5.01 µM and the GI50 (M14 melanoma) was 3.25 µM. It also gave a TGI (M14 melanoma) of 13 µM, a GI50 (MALME-3M melanoma) of 8.55 µM and a TGI (MALME-3M melanoma) of 23.6 µM. It also gave a GI50 (MCF7 breast) of 2.48 µM, a TGI (MCF7 breast) of 12.4 µM and a GI50 (MDA-MB-231 breast) of 3.41 µM. For the same molecule, the TGI (MDA-MB-231 breast) was 12.5 µM, the GI50 (MDA-MB-435) was 2.27 µM and the TGI (MDA-MB-435) was 6.72 µM. For the same molecule, the GI50 (MOLT-4 leukemia) was 3.07 µM, the TGI (MOLT-4 leukemia) was 29.6 µM and the GI50 (NCI-H226 lung) was 4.14 µM. For the same molecule, the TGI (NCI-H226 lung) was 19.3 µM, the GI50 (NCI-H460 lung) was 2.24 µM and the TGI (NCI-H460 lung) was 5.65 µM. It also gave a GI50 (NCI-H522 lung) of 2.48 µM, a TGI (NCI-H522 lung) of 8.03 µM and a GI50 (NCI/ADR-RES ovarian) of 5.25 µM. It also gave a TGI (NCI/ADR-RES ovarian) of 49.2 µM, a GI50 (OVCAR-3 ovarian) of 3.05 µM and a TGI (OVCAR-3 ovarian) of 12.6 µM. For the same molecule, the GI50 (OVCAR-4 ovarian) was 3.66 µM, the TGI (OVCAR-4 ovarian) was 16.3 µM and the GI50 (OVCAR-5 ovarian) was 2.57 µM. It also gave a TGI (OVCAR-5 ovarian) of 7.12 µM, a GI50 (OVCAR-8 ovarian) of 2.17 µM and a TGI (OVCAR-8 ovarian) of 5.19 µM. For the same molecule, the GI50 (PC-3 prostate) was 3.42 µM, the TGI (PC-3 prostate) was 14.4 µM and the GI50 (RPMI-8226 leukemia) was 3.2 µM. For the same molecule, the TGI (RPMI-8226 leukemia) was 24.7 µM, the GI50 (RXF 393 renal) was 2.24 µM and the TGI (RXF 393 renal) was 6.06 µM. For the same molecule, the GI50 (SF-268 CNS) was 3.2 µM, the TGI (SF-268 CNS) was 19.8 µM and the GI50 (SF-295 CNS) was 3.89 µM. It also gave a TGI (SF-295 CNS) of 11.5 µM, a GI50 (SF-539 CNS) of 2.17 µM and a TGI (SF-539 CNS) of 5.05 µM. The GI50 (SK-MEL-2 melanoma) was 11.5 µM, the TGI (SK-MEL-2 melanoma) was 25.3 µM and the GI50 (SK-MEL-28 melanoma) was 4.09 µM. The TGI (SK-MEL-28 melanoma) was 15.3 µM, the GI50 (SK-MEL-5 melanoma) was 7.81 µM and the TGI (SK-MEL-5 melanoma) was 21.1 µM. The GI50 (SK-OV-3 ovarian) was 3.18 µM, the TGI (SK-OV-3 ovarian) was 9.43 µM and the GI50 (SN12C renal) was 2.95 µM. For the same molecule, the TGI (SN12C renal) was 11.4 µM, the GI50 (SNB-19 CNS) was 3.65 µM and the TGI (SNB-19 CNS) was 15.1 µM. For the same molecule, the GI50 (SNB-75 CNS) was 1.84 µM, the TGI (SNB-75 CNS) was 5.09 µM and the GI50 (SR leukemia) was 2.26 µM. For the same molecule, the TGI (SR leukemia) was 12.9 µM, the GI50 (SW-620 colon) was 3.43 µM and the TGI (SW-620 colon) was 12.6 µM. For the same molecule, the GI50 (T-47D breast) was 2.32 µM, the TGI (T-47D breast) was 7.55 µM and the GI50 (TK-10 renal) was 3.41 µM. For the same molecule, the TGI (TK-10 renal) was 12.3 µM, the GI50 (U251 CNS) was 2.66 µM and the TGI (U251 CNS) was 10.1 µM. It also gave a GI50 (UACC-257 melanoma) of 3.86 µM, a TGI (UACC-257 melanoma) of 15.9 µM and a GI50 (UACC-62 melanoma) of 3.63 µM. It also gave a TGI (UACC-62 melanoma) of 15.2 µM, a GI50 (UO-31 renal) of 3.46 µM and a TGI (UO-31 renal) of 14.5 µM.
